From PubChem BioAssay (NCI)
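1) Cells in 96-well plates. 2) Compound, 48 h, 5 concentrations. 3) Linear interpolation between surrounding doses. 4) Unreached endpoint = highest concentration. Definition used: TGI = concentration required for complete inhibition of growth.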

Columns and labels:
Test in all cases: growth of human tumour cells (NCI), 48 h
HOP-92 NSCLC = system: HOP-92 NSCLC
NCI-H23 lung = system: NCI-H23 lung
SNB-75 CNS = system: SNB-75 CNS
HCT-116 colon = system: HCT-116 colon
MALME-3M melanoma = system: MALME-3M melanoma
CCRF-CEM leukemia = system: CCRF-CEM leukemia
UACC-62 melanoma = system: UACC-62 melanoma
SW-620 colon = system: SW-620 colon
SN12C renal = system: SN12C renal
OVCAR-8 ovarian = system: OVCAR-8 ovarian
SF-268 CNS = system: SF-268 CNS
HCC-2998 colon = system: HCC-2998 colon
M14 melanoma = system: M14 melanoma
OVCAR-4 ovarian = system: OVCAR-4 ovarian
RXF-631 renal = system: RXF-631 renal
SK-MEL-28 melanoma = system: SK-MEL-28 melanoma
HOP-62 NSCLC = system: HOP-62 NSCLC
HT29 colon = system: HT29 colon
LOX IMVI melanoma = system: LOX IMVI melanoma
U251 CNS = system: U251 CNS
SK-MEL-2 melanoma = system: SK-MEL-2 melanoma
HL-60(TB) leukemia = system: HL-60(TB) leukemia
SF-539 CNS = system: SF-539 CNS
TK-10 renal = system: TK-10 renal
UO-31 renal = system: UO-31 renal
SNB-78 CNS = system: SNB-78 CNS
KM12 colon = system: KM12 colon
K-562 leukemia = system: K-562 leukemia
OVCAR-5 ovarian = system: OVCAR-5 ovarian
COLO 205 colon = system: COLO 205 colon
OVCAR-3 ovarian = system: OVCAR-3 ovarian
UACC-257 melanoma = system: UACC-257 melanoma
786-0 renal = system: 786-0 renal
A498 renal = system: A498 renal
EKVX NSCLC = system: EKVX NSCLC
SK-MEL-5 melanoma = system: SK-MEL-5 melanoma
RPMI-8226 leukemia = system: RPMI-8226 leukemia
A549 NSCLC = system: A549 NSCLC
IGROV1 ovarian = system: IGROV1 ovarian
DMS 114 small cell lung = system: DMS 114 small cell lung
ACHN renal = system: ACHN renal
SNB-19 CNS = system: SNB-19 CNS
KM20L2 colon = system: KM20L2 colon
LXFL 529 NSCLC = system: LXFL 529 NSCLC
MOLT-4 leukemia = system: MOLT-4 leukemia
NCI-H522 lung = system: NCI-H522 lung
XF 498 CNS = system: XF 498 CNS
SF-295 CNS = system: SF-295 CNS
DLD-1 colon = system: DLD-1 colon
DMS 273 small cell lung = system: DMS 273 small cell lung
NCI-H460 lung = system: NCI-H460 lung
SK-OV-3 ovarian = system: SK-OV-3 ovarian
HCT-15 colon = system: HCT-15 colon

Measured: TGI

Cc1cc2c(c(C(N)=O)c1C)-c1cccc(Cl)c1C2=O
> 100 µM: HOP-92 NSCLC | NCI-H23 lung | SNB-75 CNS | HCT-116 colon | MALME-3M melanoma | CCRF-CEM leukemia | UACC-62 melanoma | SW-620 colon | SN12C renal | OVCAR-8 ovarian | SF-268 CNS | HCC-2998 colon | M14 melanoma | OVCAR-4 ovarian | RXF-631 renal | SK-MEL-28 melanoma | HOP-62 NSCLC | HT29 colon | LOX IMVI melanoma | U251 CNS | SK-MEL-2 melanoma | HL-60(TB) leukemia | SF-539 CNS | TK-10 renal | UO-31 renal | SNB-78 CNS | KM12 colon | K-562 leukemia | OVCAR-5 ovarian | COLO 205 colon | OVCAR-3 ovarian | UACC-257 melanoma | 786-0 renal | A498 renal | EKVX NSCLC | SK-MEL-5 melanoma | RPMI-8226 leukemia | A549 NSCLC | IGROV1 ovarian | DMS 114 small cell lung | ACHN renal | SNB-19 CNS | KM20L2 colon | LXFL 529 NSCLC | MOLT-4 leukemia | NCI-H522 lung | XF 498 CNS | SF-295 CNS | DLD-1 colon | DMS 273 small cell lung | NCI-H460 lung | SK-OV-3 ovarian | HCT-15 colon
